What was measured:
Format in all cases: binding
[1] = system: Antibody A specific for cortisol (clone 16DC/17.7, IgG1κ); test: LOCI competitive cortisol immunoassay, cross-reactivity screening with Biotinylated Antibody A Reagent; conditions: 100% A Biotinylated Antibody; steroid-stripped serum with cortisol (5 ng/dL)
Protocol: (§1) The antibodies were subjected to analytical size exclusion chromatography prior to any manipulations.
(§2) NHS-PEO4-Biotin was dissolved fresh at 10 mg/mL in Antibody Dialysis Buffer. […] The mixture was rocked at 25° C. for exactly 3 hours. A 200 mM solution of glycine was prepared by dissolving 750 mg glycine in Antibody Dialysis Buffer to a total volume of 50 mL. At the end of the 3-hour biotinylation reaction, 1.52 mL of the 200 mM glycine solution was added to the reaction mixture. The quenched reaction mixture was rocked an additional 60 minutes at 25° C.
(§3) The biotinylated antibody was then purified using preparatory HPLC using Antibody Dialysis Buffer as the mobile phase. […] This reagent was designated as the Biotinylated Antibody Reagent.
(§4) The assay used for screening purposes was conducted on the DIMENSION® VISTA® instrument (system) (Siemens Healthcare Diagnostics Inc., Newark Del.). Initially, 20 μL Biotinylated Antibody Reagent with 15 μL system water was added to the vessel. After 22 seconds, 15 μL sample with 15 μL system water were added to the vessel. After almost 4 minutes, 20 μL Chemibead Reagent with 15 μL system water were added to the vessel. Approximately 7 minutes later, 20 μL Sensibead Reagent with 135 μL system water was added to the vessel. The LOCI® read was taken after approximately 5 minutes. The assay from the first reagent addition to the final read took approximately 16 minutes. The contents of the vessel when the final read is taken were as follows: 2 ng/mL Biotinylated Antibody Reagent, 4 μg/mL Chemibead Reagent, 56 μg/mL Sensibead Reagent, and […] sample. The assay is a competitive format, which means that the greater the concentration of analyte in the sample, the smaller is the signal generation. This is because a detectable complex is formed by the Biotinylated Antibody Reagent, Chemibead Reagent, and Sensibead Reagent in the absence of analyte. The presence of analyte decreases the proportion of Biotinylated Antibody Reagent that is free to form detectable complexes.
(§5) Initial testing used Biotinylated Antibody A Reagent with the other reagents and the methodology described above to analyze the steroid-stripped serum with cortisol. The panel of 34 cross-reactants were individually added to the steroid-stripped serum with a defined concentration of cortisol (5 ng/dL) and assayed. Cross-reactivity data were calculated as follows:
(§6) [formula] The same testing was performed using Biotinylated Antibody L Reagent. The compilation of the percent cross-reactivities for the 34 compounds is referred to as the cross-reactivity profile. The apparent cortisol concentration is the cortisol value obtained when testing a sample containing cortisol and the interfering substance by the above test method that also detects the interfering substance to some degree.

[2] = system: Antibody L specific for cortisol (clone XM210, IgG2a); test: LOCI competitive cortisol immunoassay, cross-reactivity screening with Biotinylated Antibody L Reagent; conditions: 100% L Biotinylated Antibody; steroid-stripped serum with cortisol (5 ng/dL)
Protocol: as §1, §2, §3, §4, §5, §6

[3] = system: mixture of Biotinylated Antibody A Reagent and Biotinylated Antibody L Reagent; test: LOCI competitive cortisol immunoassay, cross-reactivity with mixtures of Biotinylated Antibody A and L Reagents; conditions: for percent cross reactivity: steroid-stripped serum with cortisol
Protocol: as §4, §5, §6
A further study was performed by mixing Biotinylated Antibody A Reagent with Biotinylated Antibody L Reagent in a 50:50 mixture; 80% Biotinylated Antibody A Reagent: 20% Biotinylated Antibody L Reagent; 75% Biotinylated Antibody A Reagent: 25% Biotinylated Antibody L Reagent; and 70% Biotinylated Antibody A Reagent: 30% Biotinylated Antibody L Reagent. […] These reagents were used to test cross-reactivity in stripped serum with cortisol.

[4] = 70% A 30% L Biotinylated Antibody
[5] = 75% A 25% L Biotinylated Antibody
[6] = 80% A 20% L Biotinylated Antibody

## C[C@]12CCC(=O)C=C1CC[C@@H]1[C@@H]2C(=O)C[C@@]2(C)[C@H]1CC[C@]2(O)[C@H](O)CO [20β-dihydrocortisone]
[1]
  percent cross reactivity: 0.1%
[2]
  percent cross reactivity: 0.1%
[3]; [4]
  percent cross reactivity: 0.1%
[3]; [5]
  percent cross reactivity: 0.1%
[3]; [6]
  percent cross reactivity: 0.1%

## CC(=O)[C@@]1(O)CC[C@H]2[C@@H]3CCC4=CC(=O)CC[C@]4(C)[C@H]3[C@@H](O)C[C@@]21C [21-deoxycortisol]
[1]
  percent cross reactivity: 8.3%
[2]
  percent cross reactivity: 6.4%
[3]; [4]
  percent cross reactivity: 7.2%
[3]; [5]
  percent cross reactivity: 6.9%
[3]; [6]
  percent cross reactivity: 6.9%

## CC(=O)[C@@]1(O)CC[C@H]2[C@@H]3CCC4=CC(=O)CC[C@]4(C)[C@H]3C(=O)C[C@@]21C [21-deoxycortisone]
[1]
  percent cross reactivity: 36.4%
[2]
  percent cross reactivity: 1.4%
[3]; [4]
  percent cross reactivity: 2.5%
[3]; [5]
  percent cross reactivity: 2.7%
[3]; [6]
  percent cross reactivity: 3.1%

## C[C@]12CCC(=O)C=C1CC[C@@H]1[C@@H]2[C@@H](O)C[C@]2(C=O)[C@@H](C(=O)CO)CC[C@@H]12 [Aldosterone]
[1]
  percent cross reactivity: 0.3%
[2]
  percent cross reactivity: 0.3%
[3]; [4]
  percent cross reactivity: 0.3%
[3]; [5]
  percent cross reactivity: 0.3%
[3]; [6]
  percent cross reactivity: 0.3%

## C[C@]12CC[C@@H](O)C[C@@H]1CC[C@@H]1[C@@H]2[C@@H](O)C[C@@]2(C)[C@H]1CC[C@]2(O)C(=O)CO [allotetrahydrocortisol]
[1]
  percent cross reactivity: 4.7%
[2]
  percent cross reactivity: 8.1%
[3]; [4]
  percent cross reactivity: 7.1%
[3]; [5]
  percent cross reactivity: 6.5%
[3]; [6]
  percent cross reactivity: 6.0%

## C[C@]12C[C@H](O)[C@H]3[C@@H](CCC4=CC(=O)CC[C@@]43C)[C@@H]1CC[C@@H]2C(=O)CO [corticosterone]
[1]
  percent cross reactivity: 0.6%
[2]
  percent cross reactivity: 3.0%
[3]; [4]
  percent cross reactivity: 1.8%
[3]; [5]
  percent cross reactivity: 1.5%
[3]; [6]
  percent cross reactivity: 1.4%

## C[C@]12CCC(=O)C=C1CC[C@@H]1[C@@H]2C(=O)C[C@@]2(C)[C@H]1CC[C@]2(O)C(=O)CO [cortisone]
[1]
  percent cross reactivity: 41.7%
[2]
  percent cross reactivity: 1.4%
[3]; [4]
  percent cross reactivity: 2.5%
[3]; [5]
  percent cross reactivity: 2.8%
[3]; [6]
  percent cross reactivity: 3.1%
[3]; incorporation of 25% Biotinylated Antibody Reagent L versus 100% A
  decrease of percent cross-reactivity: greater than 90%

## C[C@]12CC(=O)[C@H]3[C@@H](CCC4=CC(=O)CC[C@@]43C)[C@@H]1CC[C@@H]2C(=O)CO [dehydrocorticosterone]
[1]
  percent cross reactivity: 0.6%
[2]
  percent cross reactivity: 0.8%
[3]; [4]
  percent cross reactivity: 0.7%
[3]; [5]
  percent cross reactivity: 0.7%
[3]; [6]
  percent cross reactivity: 0.7%

## CC(=O)OCC(=O)[C@@]1(O)CC[C@H]2[C@@H]3CCC4=CC(=O)CC[C@]4(C)[C@@]3(F)[C@@H](O)C[C@@]21C [fluorocortisone acetate]
[1]
  percent cross reactivity: 35.3%
[2]
  percent cross reactivity: 69.3%
[3]; [4]
  percent cross reactivity: 27.8%
[3]; [5]
  percent cross reactivity: 20.9%
[3]; [6]
  percent cross reactivity: 17.0%

## C[C@]12C=CC(=O)C=C1CC[C@@H]1[C@@H]2[C@@H](O)C[C@@]2(C)[C@H]1CC[C@]2(O)C(=O)CO [prednisolone]
[1]
  percent cross reactivity: 13.6%
[2]
  percent cross reactivity: 10.2%
[3]; [4]
  percent cross reactivity: 12.4%
[3]; [5]
  percent cross reactivity: 12.2%
[3]; [6]
  percent cross reactivity: 12.4%

## C[C@]12C=CC(=O)C=C1CC[C@@H]1[C@@H]2C(=O)C[C@@]2(C)[C@H]1CC[C@]2(O)C(=O)CO [prednisone]
[1]
  percent cross reactivity: 26.5%
[2]
  percent cross reactivity: 0.6%
[3]; [4]
  percent cross reactivity: 1.1%
[3]; [5]
  percent cross reactivity: 1.3%
[3]; [6]
  percent cross reactivity: 1.5%

## CC(=O)[C@H]1CC[C@H]2[C@@H]3CCC4=CC(=O)CC[C@]4(C)[C@H]3CC[C@]12C [progesterone]
[1]
  percent cross reactivity: 0.6%
[2]
  percent cross reactivity: 0.6%
[3]; [4]
  percent cross reactivity: 0.6%
[3]; [5]
  percent cross reactivity: 0.6%
[3]; [6]
  percent cross reactivity: 0.6%
